Where two headings read alike, the source gives them in different places.

Assay [1] deals with T1, recombinant human NF-kappaB-inducing kinase (NIK/MAP3K14) (Homo sapiens, UniProt Q99558). As to the kind of experiment: Biological Assay A: inhibition of recombinant human NF-kappaB-inducing kinase (NIK/MAP3K14) activity (MBP phosphorylation, Mesoscale). The note with it: MSD MBP; averaged over all measurements on all batches; read-out: Assay A Biochemical (MSD MBP) IC50. Here is the method: Pharmacological Part Biological Assay A Inhibition of Recombinant Human NF-kappaB-Inducing Kinase (NIK/MAP3K14) Activity
T1 sequence (Q99558 whole entry): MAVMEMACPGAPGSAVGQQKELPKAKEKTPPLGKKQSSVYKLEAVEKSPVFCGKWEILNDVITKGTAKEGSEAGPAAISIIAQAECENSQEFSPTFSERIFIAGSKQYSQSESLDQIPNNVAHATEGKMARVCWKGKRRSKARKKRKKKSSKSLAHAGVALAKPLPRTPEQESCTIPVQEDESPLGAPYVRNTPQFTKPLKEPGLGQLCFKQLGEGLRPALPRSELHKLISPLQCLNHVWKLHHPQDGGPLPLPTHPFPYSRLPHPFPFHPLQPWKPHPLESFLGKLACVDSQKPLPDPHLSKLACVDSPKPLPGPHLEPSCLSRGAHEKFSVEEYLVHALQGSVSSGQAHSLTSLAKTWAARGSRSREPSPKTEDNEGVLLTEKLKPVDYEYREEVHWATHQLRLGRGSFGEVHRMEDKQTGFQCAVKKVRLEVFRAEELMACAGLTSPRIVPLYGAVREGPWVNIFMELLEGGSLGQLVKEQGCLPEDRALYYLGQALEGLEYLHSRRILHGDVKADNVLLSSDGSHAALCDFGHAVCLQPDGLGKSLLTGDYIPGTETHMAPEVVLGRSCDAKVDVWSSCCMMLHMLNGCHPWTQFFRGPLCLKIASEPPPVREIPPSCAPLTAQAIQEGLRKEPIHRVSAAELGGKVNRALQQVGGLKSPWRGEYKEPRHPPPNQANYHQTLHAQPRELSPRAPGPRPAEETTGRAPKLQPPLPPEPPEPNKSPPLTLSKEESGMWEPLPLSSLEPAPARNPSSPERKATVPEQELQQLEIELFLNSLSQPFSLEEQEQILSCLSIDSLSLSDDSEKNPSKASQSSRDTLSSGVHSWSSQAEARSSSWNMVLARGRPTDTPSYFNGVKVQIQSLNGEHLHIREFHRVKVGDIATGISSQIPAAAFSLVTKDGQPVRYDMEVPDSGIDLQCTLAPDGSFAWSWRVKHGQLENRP
Assay buffer was 50 mM Tris pH 7.5 containing 1 mM EGTA (ethylene glycol tetraacetic acid), 1 mM DTT (dithiothreitol), 0.1 mM Na3VO4, 5 mM MgCl2, 0.01% Tween® 20. Assays were carried out in 384 well Mesoscale high binding plates which had been coated with myelin basic protein (MBP) and blocked with bovine serum albumin to prevent non-specific protein binding. All compounds tested were dissolved in dimethyl sulfoxide (DMSO) and further dilutions were made in assay buffer. Final DMSO concentration was 1% (v/v) in assays. Incubations consisted of compound (1% DMSO in control and blank wells), 25 μM […] (ATP), and 10 nM NIK/MAP3K14 substituting enzyme with buffer in the blank wells. Incubations were carried out for 1 h at 25° C. and were followed by washing and sequential incubation with rabbit anti-phospho-MBP and anti-rabbit Ig Sulfotag antibody before reading bound Sulfotag on a Mesoscale Discovery. Signal obtained in the wells containing blank samples was subtracted from all other wells and […] were determined by fitting a sigmoidal curve to % inhibition of control versus Log10 compound concentration.
Data for the compounds of the invention in the above assays are provided in Table A (the values in Table are averaged values over all measurements on all batches of a compound; values as IC50 (nM)). (‘n.c.’ means not calculated: ‘Co.’ means compound)

Assay [2] concerns the target T1, recombinant human NF-kappaB-inducing kinase (NIK/MAP3K14). As to the kind of experiment: Biological Assay B: inhibition of auto-phosphorylation of recombinant human NIK/MAP3K14 (AlphaScreen), performed at 2 locations. Format: biochemical. To be noted: AlphaScreen auto-phosphorylation, averaged values. An outline of the steps:
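GST-tagged NIK (0.2 nM) auto-phosphorylation with 25 microM ATP in 50 mM Tris pH 7.5, 5 mM MgCl2, 1% DMSO, 1 h at 25° C. Anti-phospho-IKK Ser176/180 AlphaScreen readout; blank-subtracted IC50 from sigmoidal fit. Run at two sites.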
(Bead proximity is the source of the signal in Alpha formats.)

Assay [3] deals with P-IKKα levels in L363 (NIK translocated multiple myeloma) cells. As to the kind of experiment: Biological Assay C: effect of compounds on P-IKKα levels in L363 (NIK translocated multiple myeloma) cells, performed at 2 locations. The note with it: L363 cells, P-IKKα levels, averaged values. Format: cell-based, human. Put shortly:
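Human L363 cells were primed 24 h with recombinant human BAFF, then treated 2 h with compound (8-point 1:3 dilutions, 1% DMSO) at 37 °C. IC50 came from a sigmoidal fit of % inhibition versus log concentration, determined at two sites.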

Where [4] appears, read: location 2, read-out: Assay B location 2 IC50.
Setting [5] is: Homo sapiens, L-363, location 2, read-out: Assay C location 2 IC50.
Setting [6] is: Homo sapiens, L-363, location 1, read-out: Assay C location 1 IC50.

What is called IC50 is the midpoint of a concentration-inhibition curve. In the case of `COc1cc(C(=O)NC2CCOCC2)ccc1Nc1nccc(-c2cnc3c(c2)C(C)(CO)CN3)n1` (stereo not drawn) [Compound 1], the IC50 stood at 12 nM in assay [1], 2.6 nM in assay [2] (setting [4]) and 129 nM in assay [3] (setting [5]).
For `CC(=O)NCc1ccc(Nc2nccc(-c3cnc4c(c3)C(C)(C)CN4)n2)c(C)c1` [Compound 44] the same measures were 20 nM, 2.5 nM and 243 nM.
The matching figures for `COc1cc(Nc2nccc(-c3cnc4c(c3)C(C)(CO)CN4)n2)cc(OC)c1OC` (stereo not drawn) [Compound 46]: 3.3 nM, 2.8 nM and approximately 129 nM.
Regarding `COc1cc(CNC(C)=O)c(C)c(Nc2nccc(-c3cnc4c(c3)C(C)(C)CN4)n2)c1` [Compound 49], the IC50 in assay [1] was 6.2 nM; in assay [2] (setting [4]), 1.8 nM; in assay [3] (setting [6]) it was 550 nM; in assay [3] (setting [5]), 43.7 nM.
As to `COc1cc(C(=O)NC2CCOCC2)ccc1Nc1nccc(-c2cnc3c(c2)C(C)(C)CN3)n1` [Compound 50], the IC50 in assay [1] is 7.4 nM; in assay [2] (setting [4]), 1.2 nM; in assay [3] (setting [5]), 81.3 nM.
As to `Cc1cc(C(=O)N2CCC(O)CC2)ccc1Nc1nccc(-c2cnc3c(c2)C(C)(C)CN3)n1` [Compound 54], the IC50 came out at 8.9 nM in assay [1], 3.4 nM in assay [2] (setting [4]), 263 nM in assay [3] (setting [6]) and 373 nM in assay [3] (setting [5]).
Consider `Cc1cc(C(=O)NC2CN(C)C2)ccc1Nc1nccc(-c2cnc3c(c2)C(C)(C)CN3)n1` [Compound 55], for which the IC50 stood at 32.4 nM in assay [1], 3.3 nM in assay [2] (setting [4]) and 288 nM in assay [3] (setting [5]).
For `COc1cc(C(=O)NC2CCN(C)CC2)ccc1Nc1nccc(-c2cnc3c(c2)C(C)(C)CN3)n1` [Compound 60] the same measures were 5.5 nM, 1.2 nM and 407 nM.
For the molecule `COc1cc(CNC(C)=O)ccc1Nc1nccc(-c2cnc3c(c2)C(C)(C)CN3)n1` [Compound 62], the values for the IC50 in assay [1], in assay [2] (setting [4]) and in assay [3] (setting [5]) were 5.5 nM, 1.4 nM and 43.7 nM, respectively.
For `COC1CCN(C(=O)c2ccc(Nc3nccc(-c4cnc5c(c4)C(C)(C)CN5)n3)c(C)c2)CC1` [Compound 79], the IC50 in assay [1] turned out to be 11.8 nM; in assay [2] (setting [4]) it was 1.3 nM; in assay [3] (setting [6]), 661 nM; in assay [3] (setting [5]), 74.1 nM.
With `Cc1cc(C(=O)N2CCN(C)CC2)ccc1Nc1nccc(-c2cnc3c(c2)C(C)(C)CN3)n1` [Compound 81], the figures for the IC50 in assay [1], in assay [2] (setting [4]) and in assay [3] (setting [5]) were 14.8 nM, 2.6 nM and 589 nM, respectively.
The matching figures for `CC1(C)CNc2ncc(-c3ccnc(Nc4ccc(C(=O)NC5CCOCC5)cc4OC(F)F)n3)cc21` [Compound 82]: 24.6 nM, 2.7 nM and 282 nM.
For `COc1cc(CNC(C)=O)c(C)c(Nc2nccc(-c3cnc4c(c3)C(C)(CO)CN4)n2)c1` (stereo not drawn) [Compound 84] the same measures were 5.4 nM, 4.8 nM and 49 nM.
With `CC(=O)NCc1ccc(Nc2nccc(-c3cnc4c(c3)C(C)(C)CN4)n2)c(OC(F)F)c1` [Compound 85], the results for the IC50 in assay [1], in assay [2] (setting [4]) and in assay [3] (setting [5]) were 14.1 nM, 3 nM and 67.6 nM, respectively.
For `CC(=O)NCc1ccc(Nc2nccc(-c3cnc4c(c3)C(C)(CO)CN4)n2)c(C)c1` (stereo not drawn) [Compound 86] the same measures were 15.1 nM, 11.2 nM and 550 nM.
As to `Cc1cc(C(=O)NC2CCOCC2)ccc1Nc1nccc(-c2cnc3c(c2)C(C)(CO)CN3)n1` (stereo not drawn) [Compound 87], the IC50 in assay [1] is 21.4 nM; in assay [2] (location 1, read-out: Assay B location 1 IC50), 17.8 nM; in assay [2] (setting [4]), 13.5 nM; in assay [3] (setting [5]), 1150 nM.
In the case of `COC1CCN(C(=O)c2ccc(Nc3nccc(-c4cnc5c(c4)C(C)(CO)CN5)n3)c(C)c2)CC1` (stereo not drawn) [Compound 133], the half-maximal inhibitory concentration (IC50) in assay [1] turned out to be 5.8 nM; in assay [3] (location 2, read-out: Assay C location 2 IC50), 129 nM.
